What was measured:
Assay type in all cases: functional
NB-1691 [1] = assay: Synergistic cytotoxicity against human NB-1691 cells assessed as combination index at ED 75 measured after 72 hrs in presence of temozolomide by Cell-titer Glo reagent assay
NCI-H1563 [2] = assay: Synergistic cytotoxicity against human NCI-H1563 cells assessed as combination index at ED 50 measured after 72 hrs in presence of MEK inhibitor GSK1120212 by Cell-titer Glo reagent assay
NCI-H1792 [3] = assay: Synergistic cytotoxicity against human NCI-H1792 cells expressing KRAS mutant assessed as combination index at ED75 measured after 72 hrs in presence of MEK inhibitor GSK1120212 by Cell-titer Glo reagent assay
MIA PaCa-2 = assay: Synergistic cytotoxicity against human MIA PaCa-2 cells expressing KRAS mutant assessed as combination index at ED75 measured after 72 hrs in presence of MEK inhibitor GSK1120212 by Cell-titer Glo reagent assay
Calu-6 = assay: Synergistic cytotoxicity against human Calu-6 cells expressing KRAS mutant assessed as combination index at ED75 measured after 72 hrs in presence of MEK inhibitor GSK1120212 by Cell-titer Glo reagent assay
NCI-H2170 = assay: Synergistic cytotoxicity against human NCI-H2170 cells assessed as combination index at ED 50 measured after 72 hrs in presence of MEK inhibitor GSK1120212 by Cell-titer Glo reagent assay
NB-1691 [4] = assay: Synergistic cytotoxicity against human NB-1691 cells assessed as combination index at ED 50 measured after 72 hrs in presence of SN-38 by Cell-titer Glo reagent assay
NCI-H23 = assay: Synergistic cytotoxicity against human NCI-H23 cells assessed as combination index at ED75 measured after 72 hrs in presence of MEK inhibitor GSK1120212 by Cell-titer Glo reagent assay
Capan-2 = assay: Synergistic cytotoxicity against human Capan-2 cells expressing KRAS mutant assessed as combination index at ED75 measured after 72 hrs in presence of MEK inhibitor GSK1120212 by Cell-titer Glo reagent assay
NB-1691 [5] = assay: Synergistic cytotoxicity against human NB-1691 cells assessed as combination index at ED 50 measured after 72 hrs in presence of concurrent treatment of […] inhibitor CI-1040 by Cell-titer Glo reagent assay
NCI-H2030 = assay: Synergistic cytotoxicity against human NCI-H2030 cells expressing KRAS mutant assessed as combination index at ED75 measured after 72 hrs in presence of MEK inhibitor GSK1120212 by Cell-titer Glo reagent assay
NCI-H1792 [6] = assay: Synergistic cytotoxicity against human NCI-H1792 cells expressing KRAS mutant assessed as combination index at ED 50 measured after 72 hrs in presence of MEK inhibitor GSK1120212 by Cell-titer Glo reagent assay
SK-N-FI [7] = assay: Synergistic cytotoxicity against human SK-N-FI cells assessed as combination index at ED 50 measured after 72 hrs in presence of sequential treatment of […] inhibitor CI-1040 by Cell-titer Glo reagent assay
SW1990 = assay: Synergistic cytotoxicity against human SW1990 cells expressing KRAS mutant assessed as combination index at ED75 measured after 72 hrs in presence of MEK inhibitor GSK1120212 by Cell-titer Glo reagent assay
SW48 = assay: Synergistic cytotoxicity against human SW48 cells assessed as combination index at ED 50 measured after 72 hrs in presence of MEK inhibitor GSK1120212 by Cell-titer Glo reagent assay
SK-N-FI [8] = assay: Synergistic cytotoxicity against human SK-N-FI cells assessed as combination index at ED 50 measured after 72 hrs in presence of concurrent treatment of […] inhibitor CI-1040 by Cell-titer Glo reagent assay
HuP-T4 = assay: Synergistic cytotoxicity against human HuP-T4 cells expressing KRAS mutant assessed as combination index at ED 50 measured after 72 hrs in presence of MEK inhibitor GSK1120212 by Cell-titer Glo reagent assay
NCI-H2122 = assay: Synergistic cytotoxicity against human NCI-H2122 cells expressing KRAS mutant assessed as combination index at ED 50 measured after 72 hrs in presence of MEK inhibitor GSK1120212 by Cell-titer Glo reagent assay
NB-1691 [9] = assay: Synergistic cytotoxicity against human NB-1691 cells assessed as combination index at ED 75 measured after 72 hrs in presence of concurrent treatment of […] inhibitor CI-1040 by Cell-titer Glo reagent assay
CAPAN-1 = assay: Synergistic cytotoxicity against human CAPAN-1 cells expressing KRAS mutant assessed as combination index at ED 50 measured after 72 hrs in presence of MEK inhibitor GSK1120212 by Cell-titer Glo reagent assay
NCI-H2228 = assay: Synergistic cytotoxicity against human NCI-H2228 cells assessed as combination index at ED75 measured after 72 hrs in presence of MEK inhibitor GSK1120212 by Cell-titer Glo reagent assay
NCI-H358 = assay: Synergistic cytotoxicity against human NCI-H358 cells expressing KRAS mutant assessed as combination index at ED 50 measured after 72 hrs in presence of MEK inhibitor GSK1120212 by Cell-titer Glo reagent assay
NCI-H1563 [10] = assay: Synergistic cytotoxicity against human NCI-H1563 cells assessed as combination index at ED75 measured after 72 hrs in presence of MEK inhibitor GSK1120212 by Cell-titer Glo reagent assay
NCI-H1299 = assay: Synergistic cytotoxicity against human NCI-H1299 cells expressing NRAS mutant assessed as combination index at ED75 measured after 72 hrs in presence of MEK inhibitor GSK1120212 by Cell-titer Glo reagent assay
SK-N-FI [11] = assay: Synergistic cytotoxicity against human SK-N-FI cells assessed as combination index at ED 75 measured after 72 hrs in presence of temozolomide by Cell-titer Glo reagent assay
HPAF-II = assay: Synergistic cytotoxicity against human HPAF-II cells expressing KRAS mutant assessed as combination index at ED75 measured after 72 hrs in presence of MEK inhibitor GSK1120212 by Cell-titer Glo reagent assay
NB-1691 [12] = assay: Synergistic cytotoxicity against human NB-1691 cells assessed as combination index at ED 50 measured after 72 hrs in presence of temozolomide by Cell-titer Glo reagent assay
RKO = assay: Synergistic cytotoxicity against human RKO cells expressing BRAF mutant assessed as combination index at ED 50 measured after 72 hrs in presence of MEK inhibitor GSK1120212 by Cell-titer Glo reagent assay
ASPC1 = assay: Synergistic cytotoxicity against human ASPC1 cells expressing KRAS mutant assessed as combination index at ED75 measured after 72 hrs in presence of MEK inhibitor GSK1120212 by Cell-titer Glo reagent assay
[13] = Synergistic cytotoxicity against human NB-1771 cells assessed as combination index at ED 75 measured after 72 hrs in presence of concurrent treatment of […] inhibitor CI-1040 by Cell-titer Glo reagent assay

`CC(C)Oc1ccc(C(=O)N[C@H](CNC(=O)CN(C)C)Cc2ccc(-c3cn4cccc([C@H](C)O)c4n3)cc2)cc1Cl` [GSK-923295A] gave a CI (NB-1691 [1]) of 0.241, a CI (NCI-H1563 [2]) of 0.405 and a CI (NCI-H1792 [3]) of 0.482. The CI (MIA PaCa-2) was 0.311, the CI (Calu-6) was 0.533 and the CI (NCI-H2170) was 0.37. It also gave a CI (NB-1691 [4]) of 0.394, a CI (NCI-H23) of 0.234 and a CI (Capan-2) of 0.153. The CI (NB-1691 [5]) was 0.256, the CI (NCI-H2030) was 2.329 and the CI (NCI-H1792 [6]) was 0.484. For the same compound, the CI (SK-N-FI [7]) was 0.834, the CI (SW1990) was 0.103 and the CI (SW48) was 0.36. For the same compound, the CI (SK-N-FI [8]) was 0.643, the CI (HuP-T4) was 0.452 and the CI (NCI-H2122) was 0.85. The CI (NB-1691 [9]) was 0.308, the CI (CAPAN-1) was 0.053 and the CI (NCI-H2228) was 0.404. It also gave a CI (NCI-H358) of 0.416, a CI (NCI-H1563 [10]) of 0.243 and a CI (NCI-H1299) of 0.511. The CI (SK-N-FI [11]) was 0.94, the CI (HPAF-II) was 0.473 and the CI (NB-1691 [12]) was 0.405. For the same compound, the CI (RKO) was 0.373, the CI (ASPC1) was 0.323 and the CI [13] was 0.118.
